Measured values taken from patent US20090149395A1, “NOVEL MACROCYCLIC POLYENE LACTAMS” (priority 2007, published 2009).
Converted amounts (≈) assume the structure as drawn. Read-outs that look alike come from different tables or passages of the source.

Legend:
[1] = test system: B. subtilis 1A1; experiment: MIC broth dilution; type: cell-based; conditions: Bacillus subtilis, 1A1, B. subtilis 1A1
[2] = test system: B. anthracis sterne; experiment: microbe, parasite or virus in culture; type: cell-based; conditions: Bacillus anthracis
[3] = test system: MRSA NRS108; experiment: MIC broth dilution; type: cell-based, Methicillin-resistant Staphylococcus aureus; conditions: Staphylococcus aureus
[4] = test system: MRSA NRS1; experiment: MIC broth dilution; type: cell-based, Methicillin-resistant Staphylococcus aureus; conditions: Staphylococcus aureus
[5] = test system: MSSA (ATCC 13709); experiment: MIC broth dilution; type: cell-based, Staphylococcus aureus
[6] = test system: E. faecalis (VRE BM4147); experiment: MIC broth dilution; type: cell-based; conditions: Enterococcus faecalis
[7] = test system: E. faecium (VRE JM89); experiment: MIC broth dilution; type: cell-based; conditions: Enterococcus faecium
[8] = test system: E. faecium E4So1; experiment: MIC broth dilution; type: cell-based; conditions: Enterococcus faecium
[9] = test system: E. faecium MG1953; experiment: MIC broth dilution; type: cell-based; conditions: Enterococcus faecium
[10] = test system: S. pneumoniae BAA225; experiment: MIC broth dilution; type: cell-based; conditions: Streptococcus pneumoniae
[11] = test system: bacterial cells; experiment: Solid agar growth inhibition zone assay; type: cell-based; conditions: MHB agar, 5 μl spot, 16 hr to 24 hr incubation; strain not named
Description: This can be achieved in different assay format; bacteria growing on solid agar media or bacteria growing in broth such as for Example 5 and 6 (Minimal Inhibition Concentration).
For solid agar format, bacterial cells are first grown in a suitable media such as Mueller Hinton broth (MHB) until exponential phase (OD600<1.0). The cells are diluted back to OD600=0.02 in MHB, and evenly applied as a thin layer on the surface of a plate of solid growth media, such as MHB agar (about 0.1 ml onto a surface area of 100 cm^2). After the surface is dried, a 5 μl aliquot of a 2-fold serial dilution of NOVO4 (in 50% DMSO) is spotted onto the surface of the agar plate. After 16 hr to 24 hr of incubation, depending on the bacterial strain of interest, the diameter of zones of growth inhibition is measured.

[12] = test system: NIH3T3 mouse embryonic fibroblasts; experiment: Mammalian cytotoxicity assay (CellTiter 96 AQueous One); type: cell-based; conditions: NIH3T3 cells, 24 hr, highest tested 16 μg/ml
Description: Mammalian cytotoxicity assays were performed using NIH3T3 mouse embryonic fibroblasts (ATCC CRL-1658), and cytotoxicity was measured using the CellTiter 96® AQueous One Solution Cell Proliferation Assay (Promega, Madison, Wis., Cat: G3582), according to the manufacturer's recommendations.
100× working stocks of 2-fold serial dilution of NOVO4 in DMSO were created in a 96 well format. The highest concentration of the 100× concentration (working stock) was prepared by adding […] of the stock solution of NOVO4 (10 mg/ml in DMSO) for every 0.68 μl of DMSO to well A02. 0.5 μl of this 100× stock was added for every 0.5 μl of DMSO in well A03 to create a total of 7 two-fold serial dilution series, from 1600 μg/ml to 25 μg/ml (from highest in well A02 to A08,). A DMSO control was also included (wells in column A01, and A12). […]
The plate was visually inspected under a dissecting microscope, and the absorbance at 490 nm was read using a Spectramax Plus Spectrophotometer, with wells A12, and B12 reserved as blanks. The signal of compound alone (well A11) was verified not to contribute to the absorbance at this wavelength. Next, 20 μl of the CellTiter 96® AQueous One Solution Cell Proliferation Assay (Promega, Madison, Wis., Cat: G3582) was added to each well, and the plate was read after 3 hr of incubation. […]

[13] = test system: MRSA and VRE; experiment: Effect of serum on NOVO4 MIC; type: cell-based; conditions: MIC without serum compared to media with 10% calf bovine serum
Description: These studies follow the procedure for determining the MIC described above in Example 5. Briefly, two-fold serial dilution of the NOVO4 compound are added to the test cells of interest, MRSA and VRE, and the lowest concentration of compound that inhibits growth after a period of incubation is considered to be the MIC. To determine the effect of serum on the activity of NOVO4, MIC in the absence of serum is compared to MIC in media supplemented with 10% calf bovine serum (ATCC 30-2030).

[14] = physchem
[15] = test system: human red blood cells; type: cell-based
Description: The effect of NOVO4 on the hemolysis of human red blood cells was also tested. A total of 10 ml of expired packed red blood cells from the blood bank was gently added to 80 ml of PBS (Phosphate buffered saline), and pelleted at 1000 g for 5 minutes at 4° C. The upper phase and buffy layer (white blood cells) were removed. The cells are repeatedly washed by gentle mixing with PBS, and centrifugation until the upper phase is clear. In the last wash, 40 ml of 1×PBS with 0.05% BSA was added to half of the red blood cells while 40 ml of 1×PBS without BSA was added to the other half. The upper phase of the last wash was removed to leave a total volume of about 10 ml. The concentration of the red blood cells was measured by using the spectrophometer at 600 nm. An aliquot of the cells are diluted to a final density OD600 of 24 in 1×PBS, and another to a final density OD600 of 24 in 1×PBS with 0.05% BSA.
The compound NOVO4 is two-fold serially diluted (similar to that described above for mammalian NIH3T3 cytotoxicity assay) as 100× concentration in DMSO, ranging from 0.4 μg/ml to 400 μg/ml. […] After thorough mixing, the A450 was read using a Spectramax Plus Spectrophotometer, using wells with only 1×PBS as blanks. […]

With CC1\C=C/C=C\C=C/C=C\C=C/C(OC2OCC(O)C(O)C2N)C(C)(O)/C=C/C=C\C=C/C=C/C(=O)NC1 (stereo not shown) [NOVO4] the MIC ([1]; MHB) was 0.06 to 1 µg/mL (≈ 0.114 to 1.91 µM), the MIC ([1]; MHB + 0.05% BSA) was 0.125 µg/mL and the MIC ([1]; MHB + 10% FCS) was 0.06 to 0.5 µg/mL. The MIC ([2]; MHB) was 0.25 to 0.5 µg/mL (≈ 0.477 to 0.953 µM), the MIC ([2]; MHB + 0.05% BSA) was 0.125 to 0.5 µg/mL and the MIC ([2]; MHB + 10% FCS) was 0.25 to 0.5 µg/mL. It also gave an MIC ([3]; MHB) of 1 to 8 µg/mL (≈ 1.91 to 15.2 µM), an MIC ([3]; MHB + 0.05% BSA) of 2 µg/mL and an MIC ([3]; MHB + 10% FCS) of 0.5 to 2 µg/mL. For the same molecule, the MIC ([4]; MHB) was 2 to 4 µg/mL (≈ 3.81 to 7.62 µM), the MIC ([4]; MHB + 0.05% BSA) was 0.5 µg/mL and the MIC ([4]; MHB + 10% FCS) was 1 µg/mL. The MIC ([5]; MHB + 0.05% BSA) was 0.25 µg/mL, the MIC ([5]; Staphylococcus aureus, MHB + 10% FCS) was 0.25 to 0.5 µg/mL and the MIC ([5]; Staphylococcus aureus, MHB, read-out: MIC) was 0.25 µg/mL (≈ 0.477 µM). For the same molecule, the MIC ([6]; MHB) was 2 to 4 µg/mL (≈ 3.81 to 7.62 µM), the MIC ([6]; MHB + 0.05% BSA) was 1 to 2 µg/mL and the MIC ([6]; MHB + 10% FCS) was 2 µg/mL. It also gave an MIC ([7]; MHB) of 4 µg/mL (≈ 7.62 µM), an MIC ([7]; MHB + 0.05% BSA) of 2 µg/mL and an MIC ([7]; MHB + 10% FCS) of 2 µg/mL. It also gave an MIC ([8]; MHB) of 2 µg/mL (≈ 3.81 µM), an MIC ([8]; MHB + 0.05% BSA) of 1 µg/mL and an MIC ([8]; MHB + 10% FCS) of 1 µg/mL. For the same molecule, the MIC ([9]; MHB) was 2 to 4 µg/mL (≈ 3.81 to 7.62 µM), the MIC ([9]; MHB + 0.05% BSA) was 1 to 2 µg/mL and the MIC ([9]; MHB + 10% FCS) was 2 µg/mL. The MIC ([10]; MHB) was 1 to 2 µg/mL (≈ 1.91 to 3.81 µM), the MIC ([10]; MHB + 0.05% BSA) was 1 to 2 µg/mL and the MIC ([10]; MHB + 10% FCS) was 2 to 4 µg/mL. The “minimal concentration in which a 5 μL aliquot spotted onto a lawn of growing bacteria results in an observable zone of no growth” value [11] was 0.67 µg/mL, the LD50 [12] was > 16 µg/mL and the “effect of calf bovine serum on the MIC” value [13] was “no significant effect”. The solubility ([14]; aqueous with cosolvent or surfactant or cyclodextrin) was 300 µg/mL (≈ 572 µM) and the solubility ([14]; organic solvent or mixture) was > 5000 µg/mL.

In the case of Triton X100, the “A450 (hemoglobin released)” value [15] is reported as 0.41 and the “lysis of red blood cells” value [15] is reported as “complete lysis”.
